Laboratory results from patent US12144788B2, “Visual cycle modulators” (CASE WESTERN RESERVE UNIVERSITY, priority 2017, dated 2024).

Experiments:
[1] = identification of atRAL Schiff base conjugates with MB compounds in mouse eyes; assay type: in vivo; conditions: Abca4−/−Rdh8−/− mice, 50 mg/kg oral gavage, bright light exposure 10 min; mass spectrometry versus standards
Experimental: FIGS. 6(A-B) illustrate identification of retinal Schiff base conjugates in Abca4^−/− Rdh8^−/− mice treated with MB-005 and MB-006. Following drug administration, mice were exposed to intense light for 10 min. After a 30 min recovery under darkness, animals were sacrificed and retinoids were extracted from the eyes. (A, B) Shown in the top panels are selective ion chromatograms for MB-005-retinal conjugates (A, at m/z=572.6) and MB-006-retinal conjugates (B, at m/z=588.6). Panels on the bottom show the mass spectra of the peaks coinciding with the retention times of their authentic standards. The insets display the MS/MS fragmentation patterns of the two imines, which were identical to the corresponding standards.
MB-005 or MB-006 (50 mg/kg) were administrated by oral gavage to Abca4^−/−Rdh8^−/− mice 24 h prior to light exposure. After exposure to fluorescent light for 10 min, animals were euthanized and their eyes were collected and homogenized in acetonitrile. After centrifugation, the supernatant was concentrated to 400 μl under vacuum. […]
With the effects of these compounds on visual cycle function established we next sought to examine their ability to form retinal-Schiff base conjugates in vivo. […] Retinoids were extracted and analyzed by mass spectrometry. […]

RPE65 = RPE65 (Bos taurus, UniProt Q28175); assay: in vitro retinoid isomerase activity assay with bovine RPE microsomes; conditions: up to concentrations of 50 μM
Sequence of RPE65 (Q28175 whole entry): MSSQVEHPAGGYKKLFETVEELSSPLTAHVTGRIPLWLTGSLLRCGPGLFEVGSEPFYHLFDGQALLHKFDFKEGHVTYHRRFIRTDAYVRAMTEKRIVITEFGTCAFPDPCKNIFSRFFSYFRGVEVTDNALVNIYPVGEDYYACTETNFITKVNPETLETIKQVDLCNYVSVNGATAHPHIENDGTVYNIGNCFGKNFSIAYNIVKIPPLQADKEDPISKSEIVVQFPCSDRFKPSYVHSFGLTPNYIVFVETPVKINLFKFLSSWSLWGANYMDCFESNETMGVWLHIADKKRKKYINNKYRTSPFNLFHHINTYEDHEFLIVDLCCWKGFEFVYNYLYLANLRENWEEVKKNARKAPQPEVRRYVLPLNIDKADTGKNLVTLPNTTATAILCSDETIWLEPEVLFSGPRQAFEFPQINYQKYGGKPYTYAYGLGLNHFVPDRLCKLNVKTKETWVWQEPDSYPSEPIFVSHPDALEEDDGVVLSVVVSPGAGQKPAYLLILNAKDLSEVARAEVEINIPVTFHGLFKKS
Experimental: Primary amines were pre-incubated with bovine RPE microsomes at room temperature for 5 min, then all-trans-retinol was added and the mixtures were incubated at 37° C. All incubation mixtures were quenched by the addition of methanol after 1 h of incubation. Inhibition of RPE65 enzymatic activity was measured as a decline in 11-cis-retinol production.
Synthesized primary amine (1 μl in DMF, with the final concentration ranging between 50 nM and 50 μM) was added to 10 mM Bis-Tris propane/HCl buffer, pH 7.4, containing 150 μg RPE microsomes, 1% BSA, 1 mM disodium pyrophosphate, and 20 μM aporetinaldehyde-binding protein 1 (CRALBP). The resulting mixture was pre-incubated at room temperature for 5 min. Then, all-trans-retinol (1 μl in DMF, at a final concentration of 20 μM) was added. The resulting mixture was incubated at 37° C. for 1 h. The reaction was quenched by adding 300 μl methanol, and products were extracted with 300 μl hexanes. Production of 11-cis-retinol was quantified by normal-phase HPLC with 10% (v/v) EtOAc in hexanes as the eluent at a flow rate of 1.4 ml/min. Retinoids were detected by monitoring their absorbance at 325 nm and quantified based on a standard curve representing the relationship between the amount of synthetic 11-cis-retinol standard and the area under the corresponding chromatographic peak.
To test these structural predictions, we examined the inhibitory activity of the compounds against RPE65 activity in an in vitro retinoid isomerase assay using bovine RPE microsomes as the enzyme source.

Abca4−/−Rdh8−/− mice = assay: protection against light-induced retinal degeneration (OCT, ONL thickness); assay type: in vivo, mouse
Experimental: FIGS. 7(A-B) illustrate protective effects of MB compounds against light-induced retinal degeneration in Abca4^−/−Rdh8^−/− mice. Drugs were administrated at the indicated doses to 4-6 week-old Abca4^−/−Rdh8^−/− mice (weight ˜20 g) by oral gavage. After a 24 h dark adaptation, mice were exposed to 10,000 lux light for 30 min and then returned to a dark environment for 3 days. (A) Representative OCT images of mice treated with MB compounds. A dramatic decrease in the ONL indicates advanced retinal degeneration. The black scale beside the DMSO image represents 50 μm. (B) Retinal protective effects exerted by MB compounds as quantified by average ONL thickness. Only non-scattering ONL layers were measured. For images in which the ONL layer boundary was obscured due to light scattering, the ONL length was recorded as 0 μm. Error bars represent standard deviations; n=3-5 for each group.
Abca4^−/−Rdh8^−/− mice on a C57BL/6J background were generated as previously described. Male and female WT mice with C57BL/6J backgrounds were obtained from The Jackson Laboratory. Abca4^−/−Rdh8^−/− mice used in this study were homozygous for the Leu450 allele of Rpe65 as determined by a genotyping protocol published previously and free of Crb1/rd8 and rd/rd mutations Animals were housed either in the animal facility at the Case Western Reserve University School of Medicine, where they received a standard chow diet (LabDiet 5053) and were maintained under a 12-h light (˜300 lux) and 12-h dark cycle or at the Cole Eye Institute animal facility where they were. Mice were dark adapted overnight prior to all experiments. A cohort of Rdh8^−/−Abca4^−/− or C57BL/6J mice was used when they reached the age of 1 to 2 months, and both sexes were used evenly. All tested primary amines were suspended in 100 μl soybean oil with less than 10% (v/v) DMSO and were administered by oral gavage with a 22-gauge feeding needle. Experimental manipulations in the dark were done under dim red light transmitted through a Kodak No. 1 Safelight Filter (transmittance >560 nm).
After dark adaptation for 24 h, Abca4^−/−Rdh8^−/− mice with pupils dilated by 1% tropicamide were exposed to fluorescent light (10,000 lux; 150 W spiral lamp; Commercial Electric) for 30 min in a white paper bucket (Papersmith) and then kept in the dark for an additional 3 days. Development of retinal degeneration was then determined by ultra-high-resolution spectral domain OCT (SD-OCT; Bioptigen) and ERG as previously described.
To examine the ability of […] cause retinal damage in the absence of treatment with protective agents. Three days later retinas were imaged in vivo by optical coherence tomography, with preservation of outer nuclear layer thickness and light scattering properties serving as markers for retinal health. MB-001, which is capable of preventing light-induced retinal degeneration through both direct RPE65 inhibition as well as retinal sequestration served as a positive control for these experiments.

[2] = quantification of MB-005 in mouse eyes by LC-ESI-MS/MS; assay type: in vivo; conditions: 1 mg dose oral gavage
Experimental: MB-005 (1 mg/mouse) was administrated by oral gavage to C57BL/6J mice, which were then kept in the dark for 4-24 h. Then, mice were euthanized, and their eyes were homogenized in 1 ml of 10 mM sodium phosphate buffer, pH 7.4, containing 50% methanol (v/v). The resulting mixture was extracted with 4 ml EtOAc. […] This solution (100 μl) was analyzed by liquid chromatography—electrospray ionization—MS/MS (LC-ESI-MS/MS) (4.6 mm×150 mm; Agilent ZORBAX Eclipse XDB-C18) with a gradient of acetonitrile in water (0%-100% in 30 min) as the eluent at a flow rate of 0.5 ml/min.
To confirm the ocular distribution of this compound series, we directly measured the quantity of MB-005 in the eye by mass spectrometry after a 1 mg dose. […] This minimal change in ocular MB-005 concentration contrasts with the ˜3-fold greater inhibition of visual cycle function observed at 4 h versus 24 h for this compound.

CC(C)c1cc(OCC2CCCCC2)cc(C(O)CCN)c1 (stereo not shown) [MB-005, 3-Amino-1-(3-(cyclohexylmethoxy)-5-isopropylphenyl)propan-1-ol]
retinal Schiff base adducts in eye extracts [1]: contained compounds matching the expected molecular weight of the respective Schiff base adducts
inhibition against retinoid isomerization (RPE65): minimal or no inhibition
protective effect compared to the MB-001 control (Abca4−/−Rdh8−/− mice; 0.5 mg/mouse oral gavage 24 h before light): ~50%
protection against light-induced retinal degeneration (Abca4−/−Rdh8−/− mice; 2 mg/mouse oral gavage 24 h before light): fully protected
protective effect compared to the MB-001 control (Abca4−/−Rdh8−/− mice; doubling of 0.5 mg/mouse (1 mg/mouse), oral gavage 24 h before light): ~80%
ocular level of MB-005 ([2]; 6 h after treatment): ~140 ng/eye
ocular level of MB-005 ([2]; 24 h post-treatment time point versus 6 h): declined only slightly
